Patent US20120020940A1, “ANTIMICROBIAL PEPTIDES” (Helmholtz Zentrum München Deutsches Forschungszentrum Für …, priority 2008, published 2012)
Where two headings read alike, the source gives them in different places. No end group written: not given here.

How the values were obtained:
Alternaria alternata = assay: MIC, antifungal in-vitro inhibition assay (Example 2); assay type: cell-based; settings: Table 1
Protocol: (§1) In-vitro inhibition assays were performed in sterile flat-bottom 96-well plates (Greiner bio-one, Frickenhausen). Antimicrobial peptides were dissolved in 0.01% acetic acid containing 0.2% BSA (500 μg/ml), filter sterilized and stored at −20° C. For inhibition assays dilutions of peptides ranging from 5 to 200 μg/ml were prepared and 10 μl (antibacterial assay) or 20 μl (antifungal assay) of each concentration was loaded per well.
(§2) Spores of fungi were collected by water washes of sporulating cultures grown on 2% malt extract agar and spore concentration was determined by microscopy. The concentration of the spores was adjusted to 1.5-2×10^3 spores/ml in 2% malt extract medium and 80 μl of fungal spores were added per well. The final peptide concentrations used in the fungal inhibition assays were […]. After overnight incubation at room temperature the plate were put on a rotary shaker (300 rpm) for further two days to ensure consistantly growth. Antifungal effects of the peptides were determined by a microplate reader (Alternaria, Fusarium) at OD590 nm or by visual screening of the plates (Botrytis, Cladosporium).
(§3) The lowest peptide concentration leading to complete inhibition of bacterial growth or spore germination/mycelial growth (minimal inhibition concentration, MIC) was determined for each organism-peptide combination. For each peptide concentration two identical inhibition assays were performed.

Botrytis cinerea = assay: as above; assay type: cell-based; settings: Table 1
Protocol: as §1, §2, §3

Cladosporium herbarum = assay: as above; assay type: cell-based; settings: Table 1
Protocol: as §1, §2, §3

human erythrocytes = assay: Hemolytic activity, hemoglobin release; assay type: cell-based; settings: 45 min at 37° C., Table 3
Protocol: The hemolytic activity of the peptides was evaluated by determining hemoglobin release of suspensions of fresh human erythrocytes at 405 nm. Human red blood cells were centrifuged and washed three times with Tris-buffer (10 mM Tris, 150 mM NaCl, pH 7.4). Eighty μl of human red blood cells (1.5×10^9/ml) were added to 20 μl of the peptides solution (peptides dissolved in 0.2% BSA, 0.01% HAc) in 96-well plates (Greiner bio-one, Frickenhausen) and incubated for 45 min at 37° C. The endconcentration of the peptides were 0, 20, 50, 100 and 200 μg/ml. After centrifugation (1500×g, 5 min, 20° C.) 30 μl aliquots of the supernatant were transferred to 96-well plates containing 100 μl water. Hemolysis was measured by absorbance at 405 nm with a microplate reader. 100% hemolysis were determined in 2% SDS. The hemolysis percentage was calculated using the following equation: % hemolysis=[(Abs405 nm in the peptide solution−Abs405 nm in peptides solvent)/(Abs405 nm in 2% SDS−Abs405 nm in peptide solvent)]×100.
Further hemolytic activities of the various peptides of the present invention may be taken from the table depicted in example 3, last row indicated as “Hemolytic activity”. In connection therewith, however, the concentrations are stated where at least 50% hemolysis was observed.

[1] = test system: Clavibacter michiganensis sub. michiganensis; settings: overnight 25° C., Table 1
[2] = test system: Pectobacterium carotovorum sub. carotovorum; settings: Pectobacterium carotovorum sub. carotovorum; overnight 25° C.; Table 1
Xanthomonas vesicatoria [3] = settings: Xanthomonas vesicatoria; overnight 25° C.; Table 1
[4] = test system: Pseudomonas syringae pv. tomato; settings: Pseudomonas syringae pv. tomato; overnight 25° C.; Table 1
[5] = test system: Pseudomonas syringae pv. syringae; settings: Pseudomonas syringae pv. syringae; overnight 25° C.; Table 1
Pseudomonas corrugata [6] = settings: Pseudomonas corrugata; overnight 25° C.; Table 1
[7] = test system: Clavibacter michiganensis; assay: MIC and lethal concentration (Example 3); assay type: cell-based; settings: Table 2; for MIC (>90% inhibition): 1-2 days at 25° C.; for LC, lethal concentration (100% inhibition): at least 4 days of incubation
Protocol: as §1
(§4) Bacteria colonies from overnight agar plate cultures were resuspended into 5 ml LB-medium or HPG-medium (OD600 nm=0.08-0.1) and diluted into LB-medium/HPG-medium (1:100). 90 μl of this suspension containing about 10^5-10^6 CFU/ml of tested bacteria were added to each well resulting in final peptide concentrations of 0, 0.5, 1, 2, 5, 10, and 20 μg/ml. […] The lowest concentration, in which there is no observable growth (>90% inhibition) is referred to as minimal inhibitory concentration (MIC). […] For each peptide concentration two identical inhibition assays were performed.

[8] = test system: Pectobacterium carotovorum; assay: MIC and lethal concentration (Example 3); assay type: cell-based; settings: Table 2; for MIC (>90% inhibition): 1-2 days at 25° C.; for LC, lethal concentration (100% inhibition): at least 4 days of incubation
Protocol: as §1, §4

Pseudomonas corrugata [9] = assay: MIC and lethal concentration (Example 3); assay type: cell-based; settings: Table 2; for MIC (>90% inhibition): 1-2 days at 25° C.; for LC, lethal concentration (100% inhibition): at least 4 days of incubation
Protocol: as §1, §4

[10] = test system: Pseudomonas syringae pv. syringae; assay: MIC and lethal concentration (Example 3); assay type: cell-based; settings: Table 2; for MIC (>90% inhibition): 1-2 days at 25° C.; for LC, lethal concentration (100% inhibition): at least 4 days of incubation
Protocol: as §1, §4

[11] = test system: Pseudomonas syringae pv. tomato; assay: MIC and lethal concentration (Example 3); assay type: cell-based; settings: Table 2; for MIC (>90% inhibition): 1-2 days at 25° C.; for LC, lethal concentration (100% inhibition): at least 4 days of incubation
Protocol: as §1, §4

Xanthomonas vesicatoria [12] = assay: MIC and lethal concentration (Example 3); assay type: cell-based; settings: Table 2; for MIC (>90% inhibition): 1-2 days at 25° C.; for LC, lethal concentration (100% inhibition): at least 4 days of incubation
Protocol: as §1, §4

Escherichia coli (DH5α) = assay type: cell-based
Protocol: (§5) In-vitro inhibition assays were performed in sterile ELISA-plates (Greiner bio-one, Frickenhausen or Nunc, Wiesbaden). Antimicrobial peptides were dissolved in 0.01% acetic acid containing 0.2% BSA and stored at −20° C. […] After incubation for one day at 27° C. growth inhibition of the bacteria was analyzed by a ELISA microplate reader.

Pseudomonas aeruginosa = assay type: cell-based
Protocol: as §5

Staphylococcus aureus = assay type: cell-based
Protocol: as §5

[13] = test system: Staphylococcus epidermidis; assay type: cell-based
Protocol: as §5

Yersinia enterocolitica = assay type: cell-based
Protocol: as §5

Substance | Minimal inhibition concentration (MIC) for complete inhibition of spore germination/mycelial growth (Alternaria alternata) [µg/mL] | Minimal inhibition concentration (MIC) for complete inhibition of spore germination/mycelial growth (Botrytis cinerea) [µg/mL] | Minimal inhibition concentration (MIC) for complete inhibition of spore germination/mycelial growth (Cladosporium herbarum) [µg/mL] | Hemolytic activity, concentration where at least 25% hemolysis was observed (human erythrocytes) [µg/mL] | Minimal inhibition concentration (MIC) for complete inhibition of bacterial growth [1] [µg/mL] | Minimal inhibition concentration (MIC) for complete inhibition of bacterial growth [2] [µg/mL] | Minimal inhibition concentration (MIC) for complete inhibition of bacterial growth (Xanthomonas vesicatoria [3]) [µg/mL] | Minimal inhibition concentration (MIC) for complete inhibition of bacterial growth [4] [µg/mL] | Minimal inhibition concentration (MIC) for complete inhibition of bacterial growth [5] [µg/mL] | Minimal inhibition concentration (MIC) for complete inhibition of bacterial growth (Pseudomonas corrugata [6]) [µg/mL] | MIC (>90% inhibition) [7] | LC, lethal concentration (100% inhibition) [7] | MIC (>90% inhibition) [8] [µg/mL] | LC, lethal concentration (100% inhibition) [8] [µg/mL] | MIC (>90% inhibition) (Pseudomonas corrugata [9]) | LC, lethal concentration (100% inhibition) (Pseudomonas corrugata [9]) | MIC (>90% inhibition) [10] [µg/mL] | LC, lethal concentration (100% inhibition) [10] [µg/mL] | MIC (>90% inhibition) [11] | LC, lethal concentration (100% inhibition) [11] | other results
LKALRKALKHLA-NH2 [SP12, LKALRKALKHLA -NH2] | >100 | >100 | 20 | >200 | >40 | >40 | 20 | 2.5 | 10 | >40 |  |  |  |  |  |  |  |  |  |  | 
LLKALKKLLKKLL-NH2 [SP9] | >100 | >100 | 40 | 50 | 10 | >40 | 5 | 10 | 10 | >40 |  |  |  |  |  |  |  |  |  |  | 
LRFLKKALKKLF-NH2 [SP10-2] |  |  |  |  |  |  |  |  |  |  | 0.25/0.25 μg/ml | 0.25/0.25 μg/ml | 1.0 | 2.5 | 0.5/0.5 μg/ml | 0.5/0.5 μg/ml | 0.1 | 0.25 | 0.5/0.5 μg/ml | 0.5/0.5 μg/ml | MIC (>90% inhibition) (Xanthomonas vesicatoria [12]): 0.25/0.25 μg/ml; LC, lethal concentration (100% inhibition) (Xanthomonas vesicatoria [12]): 0.25/0.25 μg/ml; MIC (>90% inhibition) (Escherichia coli (DH5α); DH5α): 1 µg/mL; MIC (>90% inhibition) (Pseudomonas aeruginosa): 1 µg/mL; MIC (>90% inhibition) (Staphylococcus aureus): 1 µg/mL; MIC (>90% inhibition) [13]: 1 µg/mL; MIC (>90% inhibition) (Yersinia enterocolitica): 10 µg/mL
LRFLKKILKHLF (also: D-amino acids incorporated, places not given here) [SP10-D] | 5 | 10 | 5 | >200 | 5 | >40 | 2 | 0.5 | 2.5 | 2.5 |  |  |  |  |  |  |  |  |  |  | 
LRKLKKILKKLF-NH2 [SP10-10] |  |  |  |  |  |  |  |  |  |  | 0.25 µg/mL | 0.5 µg/mL | 2.5 | 5.0 | 0.25/0.25 μg/ml | 0.25/0.25 μg/ml | 0.25 | 0.5 | 0.5 µg/mL | 1.0 µg/mL | MIC (>90% inhibition) (Xanthomonas vesicatoria [12]): 0.1 µg/mL; LC, lethal concentration (100% inhibition) (Xanthomonas vesicatoria [12]): 0.5 µg/mL; MIC (>90% inhibition) (Escherichia coli (DH5α); Escherichia coli (DH5α), one day at 27° C., Table 4): 1 µg/mL; MIC (>90% inhibition) (Pseudomonas aeruginosa; Pseudomonas aeruginosa, one day at 27° C., Table 4): 2 µg/mL; MIC (>90% inhibition) (Staphylococcus aureus; Staphylococcus aureus, one day at 27° C., Table 4): 10 µg/mL; MIC (>90% inhibition) ([13]; Staphylococcus epidermidis, one day at 27° C., Table 4): 1 µg/mL; MIC (>90% inhibition) (Yersinia enterocolitica; Yersinia enterocolitica, one day at 27° C., Table 4): >50 µg/mL
